The record followed here is patent US20240139185A1, “COMPOUNDS THAT PARTICIPATE IN COOPERATIVE BINDING AND USES THEREOF” (Revolution Medicines, Inc., priority 2018, published 2024).

pEC50, pIC50, pKd: −log10 of the molar value.

One test concerns the target cyclophilin A (CYPA) (Homo sapiens, UniProt P62937). The test is described as follows: CYPA-compound binary complex formation by SPR. To be noted: read-out: CYPA Binding Affinity. The gist of the method: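 CypA-Avi captured on a Biotin CAPture chip (4 μg/ml), reference flow cell subtracted. Compounds injected as 10-point 2-fold dilutions from 50 μM in HBS-P+ pH7.4 with 2% DMSO; 60 s association and 60 s dissociation, solvent-corrected. Affinity obtained by steady-state fitting.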
Background: SPR reads the build-up and loss of mass on a sensor chip optically.

Test [1] addresses T1, BRAF-GTP-KRAS-G12C complex (Homo sapiens, UniProt P01116+P62937, G12C).
T1 construct: 50 nM of His6-KRas G12C-GTP (1-169); 500 nM of tagless CypA (1-165)
The test is described as follows: KRAS-BRAF complex disruption through competition with CYPA-compound by TR-FRET. To be noted: biochemical BRAF-KRAS G12C-GTP disruption assay EC50, with CYPA. The method, boiled down:
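His6-KRAS G12C-GTP (1-169, 50 nM) with tagless CypA (1-165, 500 nM) was incubated with compound for 3 h at room temperature in pH 7.3 Hepes/NaCl/MgCl2 buffer containing GST-BRAF RBD. Anti-His Eu (10 nM) and anti-GST APC (50 nM) were then added for 1.5 h, and the 665/615 nm TR-FRET ratio was read. EC50 from 4-parameter fit; for specificity, wild-type KRAS replaced G12C, and CypA was omitted to test presenter dependence.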

Another test relates to pERK in H358 cells. The test is described as follows: pERK inhibition in H358 cells. In kind it is cell-based, human. To be noted: 4 hours treatment, read-out: Cellular pERK inhibition. The gist of the method:
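Human lung cancer H358 cells in RPMI/10% FBS were exposed to compound or DMSO for 4 h. Fixed and permeabilized cells were stained overnight at 4 C with anti-phospho-ERK1/2 (Thr202/Tyr204). Near-infrared imaging read the pERK signal at 800 nm, with DRAQ5 at 700 nm.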

Turning to `CC(C)[C@@H](C(=O)N[C@H]1Cc2cc(O)cc(c2)-c2ccc3c(c2)n(c(=O)n3C)CC(C)(C)COC(=O)[C@@H]2CCCN(N2)C1=O)N(C)C(=O)C1CN(C(=O)CCl)C1` [Compound 189], the pKd at cyclophilin A (CYPA) is at least 5.30. Further, in test [1], the pEC50 (in general, the negative decadic logarithm of the EC50, by convention in mol/L) is at least 6.30. In addition, in the test with pERK in H358 cells, the pIC50 was at least 6.00.
The matching figures for `CC#CC(=O)N1CC(C(=O)N(C)[C@H](C(=O)N[C@H]2Cc3cc(O)cc(c3)-c3ccc4c(c3)n(c(=O)n4C)CC(C)(C)COC(=O)[C@@H]3CCCN(N3)C2=O)C(C)C)C1` [Compound 190]: at least 5.30, 5.30 to 6.30 and below 5.00.
Regarding `C=CC(=O)N1CCN([C@H](C(=O)N[C@H]2Cc3cc(O)cc(c3)-c3ccc4cnn(c4c3)CC(C)(C)COC(=O)[C@@H]3CCCN(N3)C2=O)C(C)C)C1=O` [Compound 199], the pKd at cyclophilin A (CYPA) is 4.82 to 5.30. For the same compound, in test [1], the negative-log EC50 (pEC50) is 5.30 to 6.30. The pIC50 with pERK in H358 cells was below 5.00.
In the same order, the values of `C=CC(=O)N1CCN([C@H](C(=O)N[C@H]2Cc3cc(O)cc(c3)-c3ccc4c(Cl)nn(c4c3)CC(C)(C)COC(=O)[C@@H]3CCCN(N3)C2=O)C(C)C)C1=O` [Compound 200] are below 4.82, at least 6.30 and below 5.00.
The matching figures for `CC(C)[C@@H](C(=O)N[C@H]1Cc2cc(O)cc(c2)-c2ccc3c(Cl)nn(c3c2)CC(C)(C)COC(=O)[C@@H]2CCCN(N2)C1=O)N(C)C(=O)C1CN(C(=O)CCl)C1` [Compound 201]: below 4.82, at least 6.30 and at least 6.00.
`CC(C)[C@@H](C(=O)N[C@H]1Cc2cc(O)cc(c2)-c2ccc3c(C(F)F)nn(c3c2)C[C@H](C)COC(=O)[C@@H]2CCCN(N2)C1=O)N(C)C(=O)C1CN(C(=O)CCl)C1` [Compound 202]: the pKd at cyclophilin A (CYPA) was at least 5.30. In addition, in test [1], the pEC50 was at least 6.30. The pIC50 in the test on pERK in H358 cells was 5.00 to 6.00.
Consider `C=CC(=O)N1CCC1C(=O)N(C)C(C(=O)NC1Cc2cc(O)cc(c2)-c2ccc3c(C(F)F)nn(c3c2)CC(C)COC(=O)C2CCCN(N2)C1=O)C(C)C` (stereo not drawn) [Compound 203], for which the pKd on cyclophilin A (CYPA) was below 4.82. The compound also had a pEC50 in test [1] below 5.30. Further, in the test on pERK in H358 cells, the pIC50 was below 5.00.
In the same order, the values of `C=CC(=O)N1CCC1C(=O)N(C)C(C(=O)NC1Cc2cc(O)cc(c2)-c2ccc3c(C(F)F)nn(c3c2)CC(C)COC(=O)C2CCCN(N2)C1=O)C(C)C` (stereo not drawn) [Compound 204] are 4.82 to 5.30, below 5.30 and 5.00 to 6.00.
As for `C=CC(=O)N1CCCC1C(=O)N(C)C(C(=O)NC1Cc2cc(O)cc(c2)-c2ccc3c(C(F)F)nn(c3c2)CC(C)COC(=O)C2CCCN(N2)C1=O)C(C)C` (stereo not drawn) [Compound 205], the pKd on cyclophilin A (CYPA) is below 4.82. In addition, the pEC50 in test [1] is below 5.30. Besides, in the test with pERK in H358 cells, the pIC50 is below 5.00.
With `CC(C)[C@@H](C(=O)N[C@H]1Cc2cc(O)cc(c2)-c2ccc3c(-c4ccnn4C)cn(c3c2)CC(C)(C)COC(=O)[C@@H]2CCCN(N2)C1=O)N(C)C(=O)C1CN(C(=O)CCl)C1` [Compound 239], the pKd at cyclophilin A (CYPA) was at least 5.30. Further, the pEC50 in test [1] was at least 6.30. Moreover, the pIC50 with pERK in H358 cells was 5.00 to 6.00.
In the same order, the values of `Cc1cnn(C)c1-c1cn2c3cc(ccc13)-c1cc(O)cc(c1)C[C@H](NC(=O)[C@H](C(C)C)N(C)C(=O)C1CN(C(=O)CCl)C1)C(=O)N1CCC[C@H](N1)C(=O)OCC(C)(C)C2` [Compound 240] are 4.82 to 5.30, at least 6.30 and 5.00 to 6.00.
As for `CC(C)[C@@H](C(=O)N[C@H]1Cc2cc(O)cc(c2)-c2ccc3c(-c4ccccc4Cl)cn(c3c2)CC(C)(C)COC(=O)[C@@H]2CCCN(N2)C1=O)N(C)C(=O)C1CN(C(=O)CCl)C1` [Compound 241], on cyclophilin A (CYPA), the pKd is below 4.82. In test [1], this compound had a pEC50 of at least 6.30. Moreover, the pIC50 in the test on pERK in H358 cells is 5.00 to 6.00.
In the same order, the values of `CC(C)[C@@H](C(=O)N[C@H]1Cc2cc(O)cc(c2)-c2ccc3c(-c4ccccc4F)cn(c3c2)CC(C)(C)COC(=O)[C@@H]2CCCN(N2)C1=O)N(C)C(=O)C1CN(C(=O)CCl)C1` [Compound 242] are below 4.82, at least 6.30 and 5.00 to 6.00.
In the same order, the values of `CC(C)C1COC(=O)[C@@H]2CCCN(N2)C(=O)[C@@H](NC(=O)[C@H](C(C)C)N(C)C(=O)C2CN(C(=O)CCl)C2)Cc2cc(O)cc(c2)-c2ccc3c(C(C)(C)C#N)cn(c3c2)C1` (stereo partly drawn) [Compound 246] are 4.82 to 5.30, at least 6.30 and 5.00 to 6.00.
`CC(C)[C@@H](C(=O)N[C@H]1Cc2cc(O)cc(c2)-c2ccc3c(CCC#N)cn(c3c2)CC(C)(C)COC(=O)[C@@H]2CCCN(N2)C1=O)N(C)C(=O)C1CN(C(=O)CCl)C1` [Compound 256]: the pKd on cyclophilin A (CYPA) was at least 5.30. This compound had a pEC50 in test [1] of at least 6.30. In addition, the pIC50 with pERK in H358 cells was at least 6.00.
With `CC(C)[C@@H](C(=O)N[C@H]1Cc2cc(O)cc(c2)-c2ccc3c(-c4ccn(C)n4)cn(c3c2)CC(C)(C)COC(=O)[C@@H]2CCCN(N2)C1=O)N(C)C(=O)C1CN(C(=O)CCl)C1` [Compound 257], the pKd at cyclophilin A (CYPA) was 4.82 to 5.30. In addition, in test [1], the pEC50 was at least 6.30. Also, in the test with pERK in H358 cells, the pIC50 is 5.00 to 6.00.
The matching figures for `CC#CC(=O)N1CC2(CCN([C@H](C(=O)N[C@H]3Cc4cc(O)cc(c4)-c4ccc5c(C(C)(C)C#N)cn(c5c4)CC(C)(C)COC(=O)[C@@H]4CCCN(N4)C3=O)C(C)C)C2=O)C1` [Compound 259]: 4.82 to 5.30, 5.30 to 6.30 and below 5.00.
Regarding `CC(C)[C@@H](C(=O)N[C@H]1Cc2cc(O)nc(c2)-c2ccc3c(C(C)(C)C#N)cn(c3c2)CC(C)(C)COC(=O)[C@@H]2CCCN(N2)C1=O)N(C)C(=O)C1CN(C(=O)CCl)C1` [Compound 339], the pKd at cyclophilin A (CYPA) was at least 5.30. The pEC50 in test [1] was below 5.30. The pIC50 in the test on pERK in H358 cells is below 5.00.
The matching figures for `CC#CC(=O)N1CCN(C(=O)N(C)[C@H](C(=O)N[C@H]2Cc3cc(O)cc(c3)-c3ccc4c(C(C)(C)C#N)cn(c4c3)CC(C)(C)COC(=O)[C@@H]3CCCN(N3)C2=O)C(C)C)CC1` [Compound 343]: at least 5.30, 5.30 to 6.30 and 5.00 to 6.00.
The matching figures for `C=CC(=O)N1CCN(C(=O)N(C)[C@H](C(=O)N[C@H]2Cc3cc(O)cc(c3)-c3ccc4c(C(C)(C)C#N)cn(c4c3)CC(C)(C)COC(=O)[C@@H]3CCCN(N3)C2=O)C(C)C)CC1` [Compound 344]: 4.82 to 5.30, 5.30 to 6.30 and 5.00 to 6.00.
The matching figures for `C=CC(=O)N1CCC(C(=O)N(C)C(C(=O)NC2Cc3cc(O)cc(c3)-c3ccc4c(c3)N(CC(C)COC(=O)C3CCCN(N3)C2=O)CC4(C)C(C)=O)C(C)C)C1` (stereo not drawn) [Compound 391]: at least 5.30, below 5.30 and below 5.00.
For `C=CC(=O)N1CCC(C(=O)N(C)C(C(=O)NC2Cc3cc(O)cc(c3)-c3ccc4c(c3)c(cn4-c3cc(COC)ccc3C#N)CC(C)(C)COC(=O)C3CCCN(N3)C2=O)C(C)C)C1` (stereo not drawn) [Compound 393], at cyclophilin A (CYPA), the pKd is 4.82 to 5.30. In test [1], this compound gave a pEC50 of 5.30 to 6.30. Further, in the test on pERK in H358 cells, the pIC50 is 5.00 to 6.00.
The matching figures for `C=CC(=O)N1CCC(C(=O)N(C)C(C(=O)NC2Cc3cc(O)cc(c3)-c3ccc4c(-c5c(COC)noc5C)cn(c4c3)CC(C)(C)COC(=O)C3CCCN(N3)C2=O)C(C)C)C1` (stereo not drawn) [Compound 394]: 4.82 to 5.30, 5.30 to 6.30 and below 5.00.
